Patent US7947675B2, “Trifluoromethylbenzamide derivatives and therapeutic uses thereof” (Merck Patent GmbH, priority 2005, dated 2011)

Experiments:
[1] = target: T1, CETP (cholesteryl ester transfer protein) (Homo sapiens, UniProt P11597); assay: In vitro screening test: inhibitory effect on the activity of CETP (3H-cholesterol ester transfer from HDL to biotinylated LDL, SPA); type: biochemical; conditions: incubation 24 hours at 37° C., relative to control (CETP+solvent)
T1 sequence (P11597 18-493): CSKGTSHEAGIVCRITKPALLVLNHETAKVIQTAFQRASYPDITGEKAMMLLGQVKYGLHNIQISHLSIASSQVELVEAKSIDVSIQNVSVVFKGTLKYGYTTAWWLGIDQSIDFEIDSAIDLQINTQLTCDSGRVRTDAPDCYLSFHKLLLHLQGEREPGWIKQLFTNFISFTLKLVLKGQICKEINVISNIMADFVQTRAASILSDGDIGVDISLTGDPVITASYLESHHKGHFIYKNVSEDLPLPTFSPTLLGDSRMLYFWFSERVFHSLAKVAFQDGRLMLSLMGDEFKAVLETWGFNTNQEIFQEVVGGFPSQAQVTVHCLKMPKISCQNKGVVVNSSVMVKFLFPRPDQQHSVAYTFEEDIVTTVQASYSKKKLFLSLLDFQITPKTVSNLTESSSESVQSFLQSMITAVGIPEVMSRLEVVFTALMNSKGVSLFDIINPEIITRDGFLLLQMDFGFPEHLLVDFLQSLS
Procedure: Measurement of an inhibitory effect on the activity of CETP (cholesteryl ester transfer protein)
The measurement of the CETP activity is performed by measuring the transfer of ^3H-cholesterol ester from the HDLs to the biotinylated LDLs.
The transfer is measured after incubation for 24 hours in the presence of donor (HDL), acceptor (LDL) and CETP, with or without inhibitor. The reaction is stopped and the transfer measured by addition of SPA streptavidin beads (Amersham).
The increase in scintillation is proportional to the transfer of ^3H-cholesterol ester via CETP to the LDLs.
To perform the test, 10 μl of ^3H-cholesterol ester HDL, 10 μl of biotinylated LDL and 10 μl of HEPES buffer (50 mM HEPES/[…]/0.1% BSA/0.05% NaN3, pH 7.4) are mixed with 10 μl of CETP (1 mg/ml) and the test product (1 μl of the stock solution at 10 mM in DMSO) or 1 μl of DMSO alone in a 96-well microplate (Costar).
Screening is performed at a final concentration of 10 μM per well in 0.1% of solvent.
The plates are then covered with a film, shaken and incubated under a humid atmosphere at 37° C. for 24 hours.
200 μl of SPA-streptavidin beads solution (Amersham, TRKQ 7005) are added and the radioactivity reading is taken 1 hour later on a scintillation counter (Top Count, Packard) with a reading time of 0.5 minute.
The inhibition results are expressed relative to the control test (CETP+solvent).
The IC 50 values are determined and expressed in μM.

## O=C(Nc1ccc(Cl)c(Cl)c1)c1cc(C(F)(F)F)cc([N+](=O)[O-])c1N1CCCCC1 [Example 1, N-(3,4-Dichlorophenyl)-3-nitro-2-piperid-1-yl-5-trifluoromethylbenzamide]
[1]
  IC50: 1450 nM

## Nc1cc(C(F)(F)F)cc(C(=O)Nc2ccc(Cl)c(Cl)c2)c1N1CCCCC1 [Example 2, 3-Amino-N-(3,4-dichlorophenyl)-2-piperid-1-yl-5-trifluoromethylbenzamide]
[1]
  IC50: 930 nM

## O=C(Nc1ccc(Cl)c(Cl)c1)c1cc(C(F)(F)F)cc(Br)c1N1CCCCC1 [Example 3, 3-Bromo-N-(3,4-dichlorophenyl)-2-piperid-1-yl-5-trifluoromethylbenzamide]
[1]
  IC50: 890 nM

## N#Cc1cc(C(F)(F)F)cc(C(=O)Nc2ccc(Cl)c(Cl)c2)c1N1CCCCC1 [Example 4, 3-Cyano-N-(3,4-dichlorophenyl)-2-piperid-1-yl-5-trifluoromethylbenzamide]
other
  melting point: 175 °C

## CC1CCN(c2c(Cl)cc(C(F)(F)F)cc2C(=O)Nc2ccc(Cl)c(Cl)c2)CC1 [Example 6, 3-Chloro-N-(3,4-dichlorophenyl)-2-(4-methylpiperid-1-yl)-5-trifluoromethylbenzamide]
[1]
  IC50: 750 nM
